For 16 compounds, IC50 results are on record in ChEMBL document CHEMBL3627635, “Synthesis and anti-proliferative activity of novel azazerumbone conjugates with chalcones” (Bioorg Med Chem Lett, 2015).

What all share (type): functional, cell-based
Experiment [1] can be described thus: Antiproliferative activity against human Lu cells.
The test system of another experiment is HepG2. Kind of experiment: Antiproliferative activity against human HepG2 cells.
In a further experiment the test system is MCF7. Kind of experiment: Antiproliferative activity against human MCF7 cells.
Another experiment deals with P338. Description: Antiproliferative activity against mouse […] cells.
A further experiment deals with SW480. Kind of experiment: Antiproliferative activity against human SW480 cells.
The test system of the next experiment is HeLa. Kind of experiment: Antiproliferative activity against human HeLa cells.

Molecules are shown by their SMILES. Converted amounts (≈) assume the structure as drawn.

For `COc1ccc(/C=C/C(=O)c2ccc(OCCn3cc(CN4C(=O)/C=C/C(C)(C)C/C=C(\C)CC/C=C/4C)nn3)cc2O)cc1`, the IC50 in experiment [1] was determined as 1.67 µg/mL (≈ 2.73 µM); with HepG2 it was 2.06 µg/mL (≈ 3.37 µM); in the experiment with MCF7, 2.85 µg/mL (≈ 4.67 µM); with P338 it was 1.21 µg/mL (≈ 1.98 µM); in the experiment on SW480 it was 3.24 µg/mL (≈ 5.3 µM).
Taken in the same sequence, the figures for `COc1cccc(/C=C/C(=O)c2ccc(OCCn3cc(CN4C(=O)/C=C/C(C)(C)C/C=C(\C)CC/C=C/4C)nn3)cc2O)c1` were 0.61 µg/mL (≈ 0.999 µM), 1.01 µg/mL (≈ 1.65 µM), 1.12 µg/mL (≈ 1.83 µM), 0.89 µg/mL (≈ 1.46 µM) and 0.95 µg/mL (≈ 1.56 µM).
Regarding `COc1ccccc1/C=C/C(=O)c1ccc(OCCn2cc(CN3C(=O)/C=C/C(C)(C)C/C=C(\C)CC/C=C/3C)nn2)cc1O`, the IC50 was found to be 2.4 µg/mL (≈ 3.93 µM) in experiment [1]; 1.71 µg/mL (≈ 2.8 µM) with HepG2; 1.17 µg/mL (≈ 1.92 µM) with MCF7; 1.1 µg/mL (≈ 1.8 µM) with P338; 0.9 µg/mL (≈ 1.47 µM) in the experiment on SW480.
Taken in the same sequence, the figures for `COc1cc(/C=C/C(=O)c2ccc(OCCn3cc(CN4C(=O)/C=C/C(C)(C)C/C=C(\C)CC/C=C/4C)nn3)cc2O)cc(OC)c1OC` were 1.28 µg/mL (≈ 1.91 µM), 1.44 µg/mL (≈ 2.15 µM), 2.78 µg/mL (≈ 4.14 µM), 0.89 µg/mL (≈ 1.33 µM) and 2.61 µg/mL (≈ 3.89 µM).
In the case of `C/C1=C\CC(C)(C)/C=C/C(=O)N(Cc2cn(CCOc3ccc(C(=O)/C=C/c4ccc(C)cc4)c(O)c3)nn2)/C(C)=C/CC1`, the IC50 in experiment [1] was found to be 0.91 µg/mL (≈ 1.53 µM); in the experiment with HepG2 it was 0.87 µg/mL (≈ 1.46 µM); in the experiment with MCF7, 1.21 µg/mL (≈ 2.03 µM); with P338, 0.92 µg/mL (≈ 1.55 µM); with SW480 it was 1.16 µg/mL (≈ 1.95 µM).
Taken in the same sequence, the figures for `COc1ccc(/C=C/C(=O)c2ccc(OCCn3cc(CN4C(=O)/C=C/C(C)(C)C/C=C(\C)CC/C=C/4C)nn3)cc2O)cc1OCCCN1CCOCC1` were 1.56 µg/mL (≈ 2.07 µM), 1.59 µg/mL (≈ 2.11 µM), 1.13 µg/mL (≈ 1.5 µM), 0.96 µg/mL (≈ 1.27 µM) and 0.91 µg/mL (≈ 1.21 µM).
In the same order, the values of `C/C1=C\CC(C)(C)/C=C/C(=O)N(Cc2cn(CCOc3ccc(C(=O)/C=C/c4ccc(C(C)C)cc4)c(O)c3)nn2)/C(C)=C/CC1` are 0.77 µg/mL (≈ 1.24 µM), 0.84 µg/mL (≈ 1.35 µM), 0.93 µg/mL (≈ 1.49 µM), 1.39 µg/mL (≈ 2.23 µM) and 0.85 µg/mL (≈ 1.36 µM).
In the same order, the values of `COc1ccc(/C=C/C(=O)c2ccc(OCCCN3C(=O)/C=C/C(C)(C)C/C=C(\C)CC/C=C/3C)cc2)cc1` are 2.56 µg/mL (≈ 4.85 µM), 1.73 µg/mL (≈ 3.28 µM), 3.17 µg/mL (≈ 6.01 µM), 1.3 µg/mL (≈ 2.46 µM) and 2.92 µg/mL (≈ 5.53 µM).
For `COc1cccc(/C=C/C(=O)c2ccc(OCCCN3C(=O)/C=C/C(C)(C)C/C=C(\C)CC/C=C/3C)cc2)c1`, the IC50 in experiment [1] was found to be 1.06 µg/mL (≈ 2.01 µM); with HepG2 it was 1.38 µg/mL (≈ 2.62 µM); in the experiment on MCF7, 1.37 µg/mL (≈ 2.6 µM); in the experiment on P338, 1.1 µg/mL (≈ 2.08 µM); in the experiment on SW480, 1.34 µg/mL (≈ 2.54 µM).
Taken in the same sequence, the figures for `COc1ccccc1/C=C/C(=O)c1ccc(OCCCN2C(=O)/C=C/C(C)(C)C/C=C(\C)CC/C=C/2C)cc1` were 2.82 µg/mL (≈ 5.34 µM), 1.44 µg/mL (≈ 2.73 µM), 1.56 µg/mL (≈ 2.96 µM), 0.83 µg/mL (≈ 1.57 µM) and 1.33 µg/mL (≈ 2.52 µM).
Turning to `COc1cc(/C=C/C(=O)c2ccc(OCCCN3C(=O)/C=C/C(C)(C)C/C=C(\C)CC/C=C/3C)cc2)cc(OC)c1OC`, the IC50 in experiment [1] is 1.01 µg/mL (≈ 1.72 µM); in the experiment on HepG2, 0.99 µg/mL (≈ 1.68 µM); in the experiment on MCF7, 0.58 µg/mL (≈ 0.987 µM); in the experiment with P338, 0.77 µg/mL (≈ 1.31 µM); in the experiment with SW480 it was 0.71 µg/mL (≈ 1.21 µM).
Taken in the same sequence, the figures for `C/C1=C\CC(C)(C)/C=C/C(=O)N(CCCOc2ccc(C(=O)/C=C/c3ccc(C)cc3)cc2)/C(C)=C/CC1` were 1.18 µg/mL (≈ 2.31 µM), 1.53 µg/mL (≈ 2.99 µM), 1.21 µg/mL (≈ 2.36 µM), 1.29 µg/mL (≈ 2.52 µM) and 1.57 µg/mL (≈ 3.07 µM).
In the same order, the values of `COc1ccc(/C=C/C(=O)c2ccc(OCCCN3C(=O)/C=C/C(C)(C)C/C=C(\C)CC/C=C/3C)cc2)cc1OCCCN1CCOCC1` are 1.22 µg/mL (≈ 1.82 µM), 1.53 µg/mL (≈ 2.28 µM), 1.07 µg/mL (≈ 1.59 µM), 1.08 µg/mL (≈ 1.61 µM) and 0.8 µg/mL (≈ 1.19 µM).
Taken in the same sequence, the figures for `C/C1=C\CC(C)(C)/C=C/C(=O)N/C(C)=C/CC1` were 17.8 µg/mL (≈ 76.4 µM), 34.6 µg/mL (≈ 148 µM), 15.6 µg/mL (≈ 67 µM), 6.25 µg/mL (≈ 26.8 µM) and 6.83 µg/mL (≈ 29.3 µM).
`Cc1c2ccncc2c(C)c2c1[nH]c1ccccc12` [ELLIPTECINE]: the IC50 in experiment [1] stood at 0.63 µg/mL (≈ 2.56 µM); in the experiment on HepG2 it was 0.36 µg/mL (≈ 1.46 µM); in the experiment with MCF7 it was 0.44 µg/mL (≈ 1.79 µM); with P338, 0.44 µg/mL (≈ 1.79 µM); in the experiment with SW480, 0.38 µg/mL (≈ 1.54 µM).
With `C/C1=C\CC(C)(C)/C=C/C(=O)/C(C)=C/CC1` [ZERUMBONE], the IC50 in experiment [1] was 6.05 µg/mL (≈ 27.7 µM); with HepG2, 13.3 µg/mL (≈ 61.1 µM); in the experiment on MCF7 it was 9.67 µg/mL (≈ 44.3 µM); in the experiment on P338, 2.63 µg/mL (≈ 12 µM); with SW480 it was 3.15 µg/mL (≈ 14.4 µM); in the experiment with HeLa, 2.5 µg/mL (≈ 11.5 µM).
